Laboratory results: US9757380B2 (Southern Research Institute, priority 2007, dated 2017)

Legend:
Type in all cases: in vivo, mice
DU-145 (prostate) = assay: DU-145 prostate xenograph model, clofarabine combined with radiation; conditions: clofarabine 30 mg/kg/dose, ip, d. 13-24, radiation 2 Gy
Source text: (§1) Xenograph models including DU-145 (prostate), NCI-H460 NSCL (lung), SF-295 CNS (glioblastoma), SR475HN (head and neck), PANC-1 (pancreatic), and HCT-116 (colon) are employed to study the effect of compounds according to the instant disclosure combined with radiation therapy. Mice are implanted with tumor fragments subcutaneously from an in vivo passage and the tumors are allowed to grow. Mice with tumors in a designated size range are selected for the studies.

[1] = tested on: SF-295 CNS (glioblastoma); assay: SF-295 CNS glioblastoma xenograph model, clofarabine combined with radiation; conditions: clofarabine 30 mg/kg/dose, ip, d. 8-17, radiation 3 Gy, d. 8, 11, 14, 17
Source text: as §1

PANC-1 (pancreatic) = assay: PANC-1 pancreatic xenograph model, clofarabine combined with radiation; conditions: clofarabine 30 mg/kg/dose, ip, d. 12-23, radiation 2 Gy
Source text: as §1

SR475HN (head and neck) = assay: SR475HN head and neck xenograph model, clofarabine combined with radiation; conditions: SR475 head & neck, clofarabine 30 mg/kg/dose, ip, d. 19-30, radiation 2 Gy, d. 19-23, 26-30
Source text: as §1

NCI-H460 NSCL (lung) = assay: NCI-H460 NSCL lung xenograph model, clofarabine combined with radiation; conditions: clofarabine 30 mg/kg/dose, ip, d. 8-17, radiation 3 Gy
Source text: as §1

HCT-116 (colon) = assay: HCT-116 colon xenograph model, clofarabine combined with radiation; conditions: clofarabine 30mg/kg/dose, ip, d. 13-24, radiation 2 Gy
Source text: as §1

tumor models = assay: Xenograph models combined with radiation therapy (overall statement); conditions: compared with clofarabine
Source text: as §1

Row | Structure (SMILES) | Tumor-Free Survivors/Total (DU-145 (prostate); d. 13-17, 20-24) | Growth Delay (T-C, days) (DU-145 (prostate); d. 13-17, 20-24, combination: clofarabine first, radiation 1 hour later) [days] | Growth Delay (T-C, days) [1] [days] | Tumor-Free Survivors/Total [1] | Tumor-Free Survivors/Total (PANC-1 (pancreatic); d. 12-16, 19-23) | Growth Delay (T-C, days) (PANC-1 (pancreatic); d. 12-16, 19-23, based on 2 tumor doublings) [days] | Tumor-Free Survivors/Total (SR475HN (head and neck)) | Growth Delay (T-C, days) (SR475HN (head and neck); based on 2 tumor doublings) [days] | Tumor-Free Survivors/Total (NCI-H460 NSCL (lung); d. 8, 11, 14, 17) | Growth Delay (T-C, days) (NCI-H460 NSCL (lung); d. 8, 11, 14, 17, based on time to 3 tumor doublings) [days] | Tumor-Free Survivors/Total (HCT-116 (colon); d. 13-17, 20-24) | Growth Delay (T-C, days) (HCT-116 (colon); d. 13-17, 20-24, based on 3 tumor doublings) [days] | radiosensitizing capacity (tumor models)
1 | Nc1nc(Cl)nc2c1ncn2[C@@H]1O[C@H](CO)[C@@H](O)[C@@H]1F [Clofarabine] | 0/6 | 4.3 | -0.8 | 0/6 | 0/6 | 17.2 | 0/6 | 18.2 | 0/6 | 4.6 | 0/6 | 24.2 | –
2 | Nc1ccn([C@@H]2O[C@H](CO)[C@@H](O)C2(F)F)c(=O)n1 [gemcitabine] | – | – | – | – | – | – | – | – | – | – | – | – | tracked with the clofarabine results
